26 molecules from US8076285B2, “Lysobactin amides” (Aicuris GmbH & Co. KG, priority 2006, dated 2011) can be followed below.

For the first data set the following is noted: amide bond; 28-membered ring.
Consider “[(3R)-N^2-(Benzyloxycarbonyl)-3-amino-L-phenylalanyl]-[(3R)-3-hydroxy-L-leucyl]-L-leucyl-D-arginyl-L-isoleucyl-L-allothreonyl-glycyl-[(2S)-2-amino-3-(9H-fluoren-9-ylmethoxycarbonyl)aminobutyryl]-L-serine C^1.9-N^3.1-lactam trifluoroacetate”, for which the ring closure, isolated yield is 67%.
Still for that read-out and setting: then “[(3R)-N^2-(Benzyloxycarbonyl)-3-amino-L-phenylalanyl]-[(3R)-3-hydroxy-L-leucyl]-L-leucyl-D-arginyl-L-isoleucyl-L-allothreonyl-glycyl-[(3S)-3-hydroxy-L-asparaginyl]-L-alanine C^1.9-N^3.1-lactam trifluoroacetate”, with 93%; and “[(3R)-N^2-(Benzyloxycarbonyl)-3-amino-L-phenylalanyl]-[(3R)-3-hydroxy-L-leucyl]-L-leucyl-D-arginyl-L-isoleucyl-L-allothreonyl-glycyl-glycyl-L-serine C^1.9-N^3.1-lactam trifluoroacetate”, with 38%; and “[(3R)-N^2-(Benzyloxycarbonyl)-3-amino-L-phenylalanyl]-[(3R)-3-hydroxy-L-leucyl]-L-leucyl-D-arginyl-L-isoleucyl-L-leucyl-glycyl-L-seryl-L-serine C^1.9-N^3.1-lactam trifluoroacetate”, with 97%.
As to “[(3R)-N^2-(Benzyloxycarbonyl)-3-amino-L-phenylalanyl]-[(3R)-3-hydroxy-L-leucyl]-L-leucyl-D-arginyl-L-isoleucyl-L-seryl-glycyl-L-seryl-L-serine C^1.9-N^3.1-lactam trifluoroacetate”, the ring closure, isolated yield was 81%.
On the same count and under the same terms, for “[(3R)-N^2-(Benzyloxycarbonyl)-3-amino-L-phenylalanyl]-[(3R)-3-hydroxy-L-leucyl]-L-leucyl-D-arginyl-L-isoleucyl-L-valyl-glycyl-L-seryl-L-serine C^1.9-N^3.1-lactam trifluoroacetate” the value was 62%.
Same read-out and setting: for “[(3R)-N^2-(Benzyloxycarbonyl)-3-amino-L-phenylalanyl]-[(3R)-3-hydroxy-L-leucyl]-L-leucyl-D-arginyl-L-leucyl-L-allothreonyl-glycyl-L-seryl-L-serine C^1.9-N^3.1-lactam trifluoroacetate” the value was 87%.
Turning to “[(3R)-N^2-(Benzyloxycarbonyl)-3-amino-L-phenylalanyl]-[(3R)-3-hydroxy-L-leucyl]-L-leucyl-D-arginyl-L-phenylalanlyl-L-allothreonyl-glycyl-L-seryl-L-serine C^1.9-N^3.1-lactam trifluoroacetate”, the ring closure, isolated yield came out at 76%.
The same measure, in the same setting: then “[(3R)-N^2-(Benzyloxycarbonyl)-3-amino-L-phenylalanyl]-[(3R)-3-hydroxy-L-leucyl]-L-leucyl-D-arginyl-L-valyl-L-allothreonyl-glycyl-L-seryl-L-serine C^1.9-N^3.1-lactam trifluoroacetate”, with 91%.
The same measure, in the same setting: then “[(3R)-N^2-(Benzyloxycarbonyl)-3-amino-L-phenylalanyl]-[(3R)-3-hydroxy-L-leucyl]-L-leucyl-D-arginyl-[3-trimethylsilyl-L-alanlyl]-L-allothreonyl-glycyl-L-seryl-L-serine C^1.9-N^3.1-lactam trifluoroacetate”, with 51%; and “[(3R)-N^2-(Benzyloxycarbonyl)-3-amino-L-phenylalanyl]-[(3R)-3-hydroxy-L-leucyl]-L-norleucyl-D-arginyl)-L-isoleucyl-L-allothreonyl-glycyl-L-alanyl-L-serine C^1.9-N^3.1-lactam trifluoroacetate”, with 80%.
Still for that read-out and setting: then “[(3R)-N^2-(Benzyloxycarbonyl)-3-amino-L-phenylalanyl]-[(3R)-3-hydroxy-L-leucyl]-L-norvalyl-D-arginyl-L-isoleucyl-L-allothreonyl-glycyl-L-alanyl-L-serine C^1.9-N^3.1-lactam trifluoroacetate”, with 100%; and “[(3R)-N^2-(Benzyloxycarbonyl)-3-amino-L-phenylalanyl]-[(3R)-3-hydroxy-L-leucyl]-L-norvalyl-D-arginyl-L-isoleucyl-L-allothreonyl-glycyl-L-seryl-L-serine C^1.9-N^3.1-lactam trifluoroacetate”, with 77%.
Molecule “[(3R)-N^2-(Benzyloxycarbonyl)-3-amino-L-phenylalanyl]-[(3R)-3-hydroxy-L-leucyl]-L-valyl-D-arginyl-L-isoleucyl-L-allothreonyl-glycyl-L-seryl-L-serine C^1.9-N^3.1-lactam trifluoroacetate” came in with a ring closure, isolated yield of 100%.
For the molecule “[(3R)-N^2-(Benzyloxycarbonyl)-3-amino-L-phenylalanyl]-[(3R)-3-hydroxy-L-leucyl]-[3-tertbutyl-L-alanyl]-D-arginyl-L-isoleucyl-L-allothreonyl-glycyl-L-seryl-L-serine C^1.9-N^3.1-lactam trifluoroacetate”, the ring closure, isolated yield stood at 90%.
Still for that read-out and setting: then “{(3R)-N^2-[(9H-Fluoren-9-ylmethoxy)carbonyl]-3-amino-L-phenylalanyl}-[(3R)-3-hydroxy-L-leucyl]-L-leucyl-(N^5-benzyloxycarbonyl-D-ornithyl)-L-isoleucyl-L-allothreonyl-glycyl-L-seryl-L-serine C^1.9-N^3.1-lactam trifluoroacetate”, with 48%; and “{(3R)-N^2-[(9H-Fluoren-9-ylmethoxy)carbonyl]-3-amino-L-phenylalanyl}-[(3R)-3-hydroxy-L-leucyl]-L-leucyl-(N^6-benzyloxycarbonyl-D-lysyl)-L-isoleucyl-L-allothreonyl-glycyl-L-seryl-L-serine C^1.9-N^3.1-lactam trifluoroacetate”, with 78%.
Still for that read-out and setting: then “{(3R)-N^2-[(9H-Fluoren-9-ylmethoxy)carbonyl]-3-amino-L-phenylalanyl}-[(3R)-3-hydroxy-L-leucyl]-L-leucyl-D-arginyl-L-isoleucyl-L-allothreonyl-glycyl-(N^5-benzyloxycarbonyl-L-ornithyl-L-serine C^1.9-N^3.1-lactam trifluoroacetate”, with 88%; and “{(3R)-N^2-[(9H-Fluoren-9-ylmethoxy)carbonyl]-3-amino-L-phenylalanyl}-[(3R)-3-hydroxy-L-leucyl]-L-leucyl-D-arginyl-L-isoleucyl-L-allothreonyl-glycyl-[(2S)-2-amino-4-benzyloxycarbonylaminobutyryl]-L-serine C^1.9-N^3.1-lactam trifluoroacetate”, with 66%.
On the same count and under the same terms, then “{(3R)-N^2-[(9H-Fluoren-9-ylmethoxy)carbonyl]-3-amino-L-phenylalanyl}-[(3R)-3-hydroxy-L-leucyl]-L-leucyl-[(2R)-2-amino-4-benzyloxycarbonylaminobutyryl]-L-isoleucyl-L-allothreonyl-glycyl-L-seryl-L-serine C^1.9-N^3.1-lactam trifluoroacetate”, with 85%.

Staying with this data set, now noted: amide bond; 28-membered ring; HATU/NMM; DMF; 0.0 °C.
Turning to “[(3R)-N^2-(Benzyloxycarbonyl)-3-amino-L-phenylalanyl]-[(3R)-3-hydroxy-L-leucyl]-L-leucyl-D-arginyl-L-isoleucyl-L-allothreonyl-glycyl-[(3S)-3-hydroxy-L-asparaginyl]-L-serine C^1.9-N^3.1-lactam trifluoroacetate”, the ring closure, isolated yield is 73%.

For another data set the following is noted: from H-[N3-amine free, N2-Cbz-(3R)-3-amino-Phe(4-NMe2)]-[(3R)-3-OH-Leu]-Leu-dArg-Ile-aThr-Gly-[(3S)-3-OH-Asn]-Ser-OH; amide bond; 28-membered ring; HATU/NMM; DMF; 9.3 mM.
Turning to `CC[C@H](C)[C@@H]1NC(=O)[C@@H](CCCNC(=N)N)NC(=O)[C@H](CC(C)C)NC(=O)[C@H]([C@H](O)C(C)C)NC(=O)[C@@H](NC(=O)OCc2ccccc2)[C@@H](c2ccc(N(C)C)cc2)NC(=O)[C@H](CO)NC(=O)[C@H]([C@H](O)C(N)=O)NC(=O)CNC(=O)[C@H]([C@H](C)O)NC1=O`, the ring closure, yield after HPLC was 52%.

Staying with this data set, now noted: from Z-(3R)-3-amino-Phe-(3R)-3-hydroxy-Leu-Leu-dArg-Ile-alloThr-Gly-(3S)-3-hydroxy-Asn-Ser-OH; amide bond; 28-membered ring; HATU/NMM; DMF; 1.27 mM; 0.0 °C.
As to `CC[C@H](C)[C@@H]1NC(=O)[C@@H](CCCNC(=N)N)NC(=O)[C@H](CC(C)C)NC(=O)[C@H]([C@H](O)C(C)C)NC(=O)[C@@H](NC(=O)OCc2ccccc2)[C@@H](c2ccccc2)NC(=O)[C@H](CO)NC(=O)[C@H]([C@H](O)C(N)=O)NC(=O)CNC(=O)[C@H]([C@H](C)O)NC1=O`, the ring closure, yield after HPLC came out at 78.3%.

Still in this data set, the particulars now being: from Z-Phe((3R)-3-NH2)-Leu((3R)-3-OH)-Leu-dArg-Ile-aThr-Gly-Ala(3-pyridyl)-Ser-OH; amide bond; 28-membered ring; HATU/NMM; DMF; 0.0 °C.
In turn, `CC[C@H](C)[C@@H]1NC(=O)[C@@H](CCCNC(=N)N)NC(=O)[C@H](CC(C)C)NC(=O)[C@H]([C@H](O)C(C)C)NC(=O)[C@@H](NC(=O)OCc2ccccc2)[C@@H](c2ccccc2)NC(=O)[C@H](CO)NC(=O)[C@H](Cc2cccnc2)NC(=O)CNC(=O)[C@H]([C@H](C)O)NC1=O` gave a ring closure, yield after HPLC of 51%.

The data set is the same for the next values; noted with them: from Z-Phe((3R)-3-NH2)-Leu((3R)-3-OH)-Leu-dArg-Ile-aThr-Gly-Phe-Ser-OH?; amide bond; 28-membered ring; HATU/NMM; DMF; 0.0 °C.
Consider `CC[C@H](C)[C@@H]1NC(=O)[C@@H](CCCNC(=N)N)NC(=O)[C@H](CC(C)C)NC(=O)[C@H]([C@H](O)C(C)C)NC(=O)[C@@H](NC(=O)OCc2ccccc2)[C@@H](c2ccccc2)NC(=O)[C@H](CO)NC(=O)[C@H](Cc2ccccc2)NC(=O)CNC(=O)[C@H]([C@H](C)O)NC1=O`, for which the ring closure, yield after HPLC worked out at 96%.

The data set is the same for the next values; noted with them: from Z-Phe((3R)-3-NH2)-Leu((3R)-3-OH)-Leu-dArg-Ile-aThr-Gly-Ser-Ser-OH; amide bond; 28-membered ring; HATU/NMM; DMF; 19.4 mM; 0.0 °C.
`CC[C@H](C)[C@@H]1NC(=O)[C@@H](CCCNC(=N)N)NC(=O)[C@H](CC(C)C)NC(=O)[C@H]([C@H](O)C(C)C)NC(=O)[C@@H](NC(=O)OCc2ccccc2)[C@@H](c2ccccc2)NC(=O)[C@H](CO)NC(=O)[C@H](CO)NC(=O)CNC(=O)[C@H]([C@H](C)O)NC1=O`: the ring closure, yield after HPLC was 43%.
